The text below walks through data of PubChem BioAssay AID1996.

≈ marks a conversion by molar mass, not a printed value.

The conditions of this data set: buffer; pH 7.4; 200.0 µM.
What is called kinetic solubility is solubility judged after dilution from a stock solution rather than from solid. The compound `CSc1ccccc1C(=O)Nc1cccc([N+](=O)[O-])c1C` registered a solubility (kinetic) of 7.5 µg/mL (≈ 24.8 µM).
The result for `O=C1CC(c2ccccc2)CC(O)=C1C=NCc1ccncc1` (configuration not stated) reads above 46 µg/mL.
The result for `Cc1cc(NC(=O)COC(=O)/C=C/c2ccc(C)o2)no1` reads 1.8 µg/mL (≈ 6.2 µM); that for `O=C1OCC2=C1C(c1ccc(F)cc1)CC(=O)N2c1ccc(F)cc1` (configuration not stated), above 51.2 µg/mL.
`Cc1cccc2sc(NC(=O)Cn3c(C)csc3=O)nc12` gave a solubility (kinetic) of 5.1 µg/mL (≈ 16 µM).
Turning to `O=C(CCc1nc2ccccc2s1)NCc1ccccc1F`, the solubility (kinetic) was above 47.2 µg/mL.
The result for `CCOC(=O)c1cnc2c(C)cccc2c1NCCCN1CCOCC1` reads above 53.6 µg/mL; that for `COC(=O)c1sccc1NC(=O)Nc1ccccc1Cl`, 25.8 µg/mL (≈ 83 µM).
The compound `Cc1ccc(N2C(=O)C3C4C=CC(CC4)C3C2=O)cc1[N+](=O)[O-]` (configuration not stated) gave a kinetic solubility of 23.4 µg/mL (≈ 74.9 µM).
In turn, `O=C(CCC(=O)c1cccs1)NC1CCCCCC1` returned a kinetic solubility of 25.6 µg/mL (≈ 91.6 µM).
The figure for `O=C(CSc1nnc(C2CC2)n1Cc1ccccc1)N1CCNC1=O` is above 53.6 µg/mL.
As to `CC(=O)N1CCN(C(=O)c2cccc(S(=O)(=O)N3c4ccccc4CC3C)c2)CC1` (configuration not stated), the kinetic solubility was above 64.1 µg/mL.
The figure for `O=C(COC(=O)Cc1ccc(Cl)cc1Cl)NC1CC1` is above 45.3 µg/mL.
The figure for `Cn1c(=O)[nH]c(=O)c2c1nc(N)n2Cc1ccccc1` is above 40.7 µg/mL; for `O=C(NCCCn1ccnc1)c1cccc(Cl)c1` it is above 39.6 µg/mL; for `CC(=O)N1C(C)(C)CC(=NOC(=O)c2ccc(C)cc2)CC1(C)C` it is above 49.6 µg/mL.
The figure for `CC1CN(S(=O)(=O)c2ccccc2)CN1C(=O)N1CCOCC1` (configuration not stated) is above 50.9 µg/mL.
Regarding `CC(=O)N1c2ccccc2CCc2ccc([N+](=O)[O-])cc21`, the solubility (kinetic) is above 42.3 µg/mL.
`N#C/C(=C\c1ccccc1)C(=O)Nc1nncs1` gave a kinetic solubility above 38.4 µg/mL.
The figure for `O=C(Nc1cc([N+](=O)[O-])ccc1N1CCCC1)c1ccco1` is 40.9 µg/mL (≈ 136 µM).
The figure for `CN(Cc1nc(-c2cnccn2)no1)Cc1cccc2ccccc12` is 48.9 µg/mL (≈ 148 µM).
As for `O=C(NCCc1ccccn1)c1cncc(Br)c1`, the kinetic solubility is above 45.9 µg/mL.
As to `O=C(C1CC(=O)N(c2ccccc2F)C1)N1CCOCC1` (configuration not stated), the kinetic solubility was above 43.8 µg/mL.
The figure for `Cc1c(C)n(O)c2ccc3nonc3c12` is above 30.5 µg/mL; for `CC1(C(=O)Nc2ccc(S(=O)(=O)Nc3ncccn3)cc2)CCCC1` it is above 54.1 µg/mL; for `COC(=O)C1CCN(C(=O)CN2C(=O)NC3(CCC(C)CC3)C2=O)CC1` (configuration not stated) it is above 54.8 µg/mL.
As for `Cc1c(NS(=O)(=O)c2cccc(C(=O)N3CCC(C(N)=O)CC3)c2)c(=O)n(-c2ccccc2)n1C`, the solubility (kinetic) was above 74.6 µg/mL.
The figure for `COC(=O)c1cc(C(=O)N2CCOCC2)cc([N+](=O)[O-])c1` is above 44.1 µg/mL; for `CCOC(=O)c1ccc(NC(=O)NC2CC3CCC(C2)N3)cc1` (configuration not stated) it is 43.5 µg/mL (≈ 137 µM); for `c1ccc(N2CCN(C3CC4CCC3C4)CC2)cc1` (configuration not stated) it is 27.1 µg/mL (≈ 106 µM).
The result for `O=C1CNC(=S)N1Cc1ccc(F)cc1` reads above 33.6 µg/mL.
The figure for `CCOc1ccc(-n2c(-c3cccs3)nc3ccccc3c2=O)cc1` is 0.5 µg/mL (≈ 1.44 µM); for `CCOC(=O)N1CCC2(CC1)C(C#N)=C(N)OC1=C2C(=O)CCC1` it is above 49.7 µg/mL; for `CN1CCN(C(=O)C23CC4CC(C)(CC(C)(C4)C2)C3)CC1.Cl` it is 47.8 µg/mL.
`CCN(Cc1cc(=O)[nH]c2ccccc12)C(=O)C(C)C` yielded a solubility (kinetic) above 40.9 µg/mL.
The figure for `Brc1ccccc1-c1cnco1` is 8.5 µg/mL (≈ 37.9 µM); for `Cc1cccc2cc(C#N)c(NCc3ccccc3)nc12` it is 11.4 µg/mL (≈ 41.7 µM).
The figure for `CSc1ccccc1NC(=O)CN1CCCCC1` is 35.8 µg/mL (≈ 135 µM); for `C=C(C)CN1C(=O)C(=O)N(CC(=C)C)C1=O` it is above 33.3 µg/mL; for `Cc1cc(C)c(C)c(S(=O)(=O)NC(C(=O)O)C(C)C)c1C` (configuration not stated) it is above 47 µg/mL.
As for `COc1ccc2c(c1)-c1nc(/N=C/c3ccc(O)cc3)sc1CC2`, the kinetic solubility was 34 µg/mL (≈ 101 µM).
`Cc1ccc(-c2nc3ccccc3c(=O)n2O)cc1` displayed a solubility (kinetic) of 24.1 µg/mL (≈ 95.5 µM).
The figure for `CCOc1ccc2ccccc2c1C(=O)N[C@@H]1C(=O)N2[C@@H]1SC(C)(C)[C@@H]2C(=O)[O-].[Na+]` is above 65.5 µg/mL; for `O=C(NC(=S)NCc1ccccc1)c1ccc(Br)cc1` it is below 0.4 µg/mL.
The figure for `CN1CN(C)c2ccc([N+](=O)[O-])c3cccc1c23` is 2.1 µg/mL (≈ 8.63 µM).
Take `Cc1ccc(S(=O)(=O)NC(=O)Nc2cc(C)no2)cc1`: the kinetic solubility was above 44.3 µg/mL.
The compound `Cc1cc(C(=O)O)ccc1NCc1ccncc1` returned a kinetic solubility above 36.3 µg/mL.
The result for `Cn1c(CCNC(=O)c2ccco2)nc2cc([N+](=O)[O-])ccc21` reads 43.1 µg/mL (≈ 137 µM).
The result for `CNC(=S)NC12CC3CC(CC(C3)C1)C2` reads 3.8 µg/mL (≈ 16.9 µM).
`CC(=O)N(CCC(c1ccco1)C(C)C)Cc1ccc(Cl)cc1` (configuration not stated) showed a kinetic solubility of 16.4 µg/mL (≈ 49.1 µM).
The figure for `CN1CCc2c1nc1ccccc1c2NC(=O)CN1CCCC1` is 28.9 µg/mL (≈ 93.1 µM).
The compound `COc1cccc(CNCCc2c[nH]c3ccccc23)c1` displayed a kinetic solubility of 35.8 µg/mL (≈ 128 µM).
